Laboratory results as given in article PMC4440651, “Thymoquinone Inhibits Escherichia coli ATP Synthase and Cell Growth” (PLoS ONE, 2015).

Molecular target: T1, E. coli F1Fo ATP synthase (F1-ATPase) (Escherichia coli, UniProt P0ABA6+P0ABB0+P0ABB4)
T1 construct: gene atpD; with F1 alpha (atpA), gamma (atpG), delta and epsilon subunits; Fo (ab2c10–14) in the membrane preparation
Experiment: ATPase activity assay (liberated Pi) on purified F1 and F1Fo membranes; reversal by dilution or centrifuge column
Assay type: biochemical

**Q.** With `CC1=CC(=O)C(C(C)C)=CC1=O` [TQ, thymoquinone] as the compound, how does the IC50 read?
**A.** ~37 µM
